Test results reported in paper PMC8312988 (Medicinal chemistry research : an international journal for …, 2015).

Columns and labels:
in vitro = settings: human, CEM cells (lymphoblastic cell line)
[1] = Cytotoxicity assay, Vero cells; assay type: cell-based, African green monkey; settings: African green monkey, Vero cells (kidney)
PBM, CEM and Vero cells = experiment: Cytotoxicity across all cell lines used; assay type: cell-based
HIV-1 = assay type: cell-based; settings: for EC50: read-out: Anti-HIV-1 activity in PBM cells EC50; for EC90: read-out: Anti-HIV-1 activity in PBM cells EC90
[2] = Cytotoxicity assay, PBM cells; assay type: cell-based, Human; settings: human
CEM cells = settings: for IC50: read-out: Cytotoxicity IC50 CEM, 5-day incubation
Vero cells = experiment: Cytotoxicity assay, Vero cells; assay type: cell-based, African green monkey; settings: read-out: Cytotoxicity IC50 Vero; Vero cells, 5-day incubation
PBM cells = experiment: Cytotoxicity assay, PBM cells; assay type: cell-based, Human; settings: for IC50: read-out: Cytotoxicity IC50 PBM, 5-day incubation

Row | SMILES | IC50 at 5 day (in vitro) [µM] | IC50 at 5 day [1] [µM] | IC50 at 5 day [2] [µM] | other results
1 | O=C(CN1c2c(n[nH]c2-c2cccc(Cl)c2)-c2ccccc2S1(=O)=O)NN=Cc1ccc(Cl)cc1 [Compound 5c, N′-(4-Chlorobenzylidene)-2-[3-(3-chlorophenyl)-5,5-dioxidobenzo[e]pyrazolo[4,3-c][1,2]thiazin-4(2H)-yl]acetohydrazide] | 2.5 | 19.2 | 12.8 | Toxicity to all the cell lines used (in words) (PBM, CEM and Vero cells): highly toxic; EC50 (HIV-1): 4 µM
2 | O=C(CN1c2c(n[nH]c2-c2cccc(Cl)c2)-c2ccccc2S1(=O)=O)NN=Cc1ccc([N+](=O)[O-])cc1 [Compound 5m, 2-[3-(3-Chlorophenyl)-5,5-dioxidobenzo[e]pyrazolo[4,3-c] [1,2]thiazin-4(2H)-yl]-N′-[4-nitrobenzylidene]acetohydrazide] | 2.8 | 21.2 | 16.7 | –
3 | NNC(=O)CN1c2c(n[nH]c2-c2cccc(Cl)c2)-c2ccccc2S1(=O)=O [Compound 4] | – | – | – | IC50 (CEM cells): > 100 µM; IC50 (Vero cells): > 100 µM; Toxicity to all the cell lines used (in words) (PBM, CEM and Vero cells): nontoxic; Anti-HIV-1 activity (in words) (HIV-1): inactive; EC50 (HIV-1): > 100 µM; EC90 (HIV-1): > 100 µM; IC50 (PBM cells): > 100 µM
4 | O=C(CN1c2c(n[nH]c2-c2cccc(Cl)c2)-c2ccccc2S1(=O)=O)NN=Cc1cccc(Br)c1 [Compound 5d, N′-(3-Bromobenzylidene)-2-[3-(3-chlorophenyl)-5,5-dioxidobenzo[e]pyrazolo[4,3-c][1,2]thiazin-4(2H)-yl]acetohydrazide] | 12.9 | > 100 | 22.9 | –
5 | O=C(CN1c2c(n[nH]c2-c2cccc(Cl)c2)-c2ccccc2S1(=O)=O)NN=Cc1ccc(Cl)cc1Cl [Compound 5f, 2-[3-(3-Chlorophenyl)-5,5-dioxidobenzo[e]pyrazolo[4,3-c] [1,2]thiazin-4(2H)-yl]-N′-(2,4-dichlorobenzylidene)acetohydrazide] | 13.8 | 84.8 | 80.7 | Toxicity to CEM cell line (in words) (CEM cells): toxic to only CEM cell line; Toxicity in PBM cells (in words) (PBM cells): not toxic
6 | O=C(CN1c2c(n[nH]c2-c2cccc(Cl)c2)-c2ccccc2S1(=O)=O)NN=Cc1cccc([N+](=O)[O-])c1 [Compound 5l, 2-[3-(3-Chlorophenyl)-5,5-dioxidobenzo[e]pyrazolo[4,3-c] [1,2]thiazin-4(2H)-yl]-N′-(3-nitrobenzylidene)acetohydrazide] | 47.3 | 27 | > 100 | Toxicity in PBM cells (in words) (PBM cells): not toxic
7 | O=C(CN1c2c(n[nH]c2-c2cccc(Cl)c2)-c2ccccc2S1(=O)=O)NN=Cc1ccc(F)cc1 [Compound 5a, 2-[3-(3-Chlorophenyl)-5,5-dioxidobenzo[e]pyrazolo[4,3-c] [1,2]thiazin-4(2H)-yl]-N′-(4-fluorobenzylidene)acetohydrazide] | 31.6 | 45.7 | 20 | –
8 | COc1cc(C=NNC(=O)CN2c3c(n[nH]c3-c3cccc(Cl)c3)-c3ccccc3S2(=O)=O)cc(OC)c1OC [Compound 5j, 2-[3-(3-chlorophenyl)-5,5-dioxidobenzo[e]pyrazolo[4,3-c] [1,2]thiazin-4(2H)-yl]-N′-(3,4,5-trimethoxybenzylidene) acetohydrazide] | 31.6 | 14.3 | 11 | –
9 | O=C(CN1C(=O)c2ccccc2S1(=O)=O)c1cccc(Cl)c1 [Compound 1, N-3′-Chlorophenacylsaccharine] | – | – | – | IC50 (CEM cells): > 100 µM; IC50 (Vero cells): 54.8 µM; EC50 (HIV-1): > 100 µM; EC90 (HIV-1): > 100 µM; IC50 (PBM cells): > 100 µM
10 | COC(=O)CN1C(C(=O)c2cccc(Cl)c2)=C(O)c2ccccc2S1(=O)=O [Compound 3, Methyl 2-[3-(3-chlorobenzoyl)-4-hydroxy-1,1-dioxido-2H-benzo[e][1,2]thiazin-2-yl]acetate] | 22.4 | 40.6 | 57.3 | –
11 | COc1cccc(C=NNC(=O)CN2c3c(n[nH]c3-c3cccc(Cl)c3)-c3ccccc3S2(=O)=O)c1 [Compound 5h, 2-[3-(3-Chlorophenyl)-5,5-dioxidobenzo[e]pyrazolo[4,3-c] [1,2]thiazin-4(2H)-yl]-N′-(3-methoxybenzylidene)acetohydrazide] | 31.6 | 22.3 | 19 | –
12 | O=C(CN1c2c(n[nH]c2-c2cccc(Cl)c2)-c2ccccc2S1(=O)=O)NN=Cc1ccccc1[N+](=O)[O-] [Compound 5k, 2-[3-(3-Chlorophenyl)-5,5-dioxidobenzo[e]pyrazolo[4,3-c] [1,2]thiazin-4(2H)-yl]-N′-(2-nitrobenzylidene)acetohydrazide] | > 100 | > 100 | > 100 | Toxicity to all the cell lines used (in words) (PBM, CEM and Vero cells): no toxicity; Anti-HIV-1 activity (in words) (HIV-1): no inhibition
13 | O=C(CN1c2c(n[nH]c2-c2cccc(Cl)c2)-c2ccccc2S1(=O)=O)NN=Cc1cccc(Cl)c1 [Compound 5b, N′-(3-Chlorobenzylidene)-2-[3-(3-chlorophenyl)-5,5-dioxidobenzo[e]pyrazolo[4,3-c][1,2]thiazin-4(2H)-yl]acetohydrazide] | 31.6 | 16.4 | 36.3 | –
14 | O=C(C1=C(O)c2ccccc2S(=O)(=O)N1)c1cccc(Cl)c1 [Compound 2, (3-chlorophenyl)(4-hydroxy-1,1-dioxido-2H-benzo[e] [1,2]thiazin-3-yl)methanone] | 26.7 | > 100 | > 100 | –
15 | O=C(CN1c2c(n[nH]c2-c2cccc(Cl)c2)-c2ccccc2S1(=O)=O)NN=Cc1c(Cl)cccc1Cl [Compound 5g, 2-[3-(3-Chlorophenyl)-5,5-dioxidobenzo[e]pyrazolo[4,3-c] [1,2]thiazin-4(2H)-yl]-N′-(2,6-dichlorobenzylidene)acetohydrazide] | 12.5 | 60.5 | 52.5 | Toxicity to CEM cell line (in words) (CEM cells): toxic to only CEM cell line; Toxicity in PBM cells (in words) (PBM cells): not toxic
16 | O=C(CN1c2c(n[nH]c2-c2cccc(Cl)c2)-c2ccccc2S1(=O)=O)NN=Cc1ccc(Br)cc1 [Compound 5e, N′-(4-Bromobenzylidene)-2-(3-(3-chlorophenyl)-5,5-dioxidobenzo[e]pyrazolo[4,3-c][1,2]thiazin-4(2H)-yl)acetohydrazide] | 5 | 46.5 | 66.7 | Toxicity in PBM cells (in words) (PBM cells): not toxic
17 | CN(C)c1ccc(C=NNC(=O)CN2c3c(n[nH]c3-c3cccc(Cl)c3)-c3ccccc3S2(=O)=O)cc1 [Compound 5o, 2-[3-(3-Chlorophenyl)-5,5-dioxidobenzo[e]pyrazolo[4,3-c] [1,2]thiazin-4(2H)-yl]-N′-[4-(dimethylamino)benzylidene] acetohydrazide] | 2.5 | 10.4 | 23.7 | –
18 | O=C(CN1c2c(n[nH]c2-c2cccc(Cl)c2)-c2ccccc2S1(=O)=O)NN=Cc1ccc(C(=O)O)cc1 [Compound 5n, 4-[(2-(2-(3-(3-Chlorophenyl)-5,5-dioxidobenzo[e]pyrazolo [4,3-c][1,2]thiazin-4(2H)-yl)acetyl)hydrazono)methyl]benzoic acid] | 13.4 | 18.2 | 17.2 | –
19 | COc1ccc(C=NNC(=O)CN2c3c(n[nH]c3-c3cccc(Cl)c3)-c3ccccc3S2(=O)=O)c(OC)c1OC [Compound 5i, 2-[3-(3-Chlorophenyl)-5,5-dioxidobenzo[e]pyrazolo[4,3-c] [1,2]thiazin-4(2H)-yl]-N′-(2,3,4-trimethoxybenzylidene) acetohydrazide] | 31.6 | 29 | 21.8 | EC50 (HIV-1): 4.2 µM
